Assay [1] relates to DEVD-pNA hydrolysis activity in 293 cell cytosolic extracts. The assay can be described thus: Cytochrome c/dATP-induced caspase activation (DEVD hydrolysis) in 293 cell cytosolic extracts. The format is biochemical, human. On the procedure:
Cells were washed with ice cold buffer A (20 mM Hepes (pH 7.5), 10 mM KCl, 1.5 mM MgCl2, 1 mM EDTA, 1 mM DTT and 0.1 mM PMSF) and suspended in 1 vol buffer A, then incubated on ice for 20 min. 293 cells were disrupted by passage 15× through a 26 gauge needle and Jurkat T cells were disrupted by dounce homogenization in 2 ml using 15 strokes with a pestle B. Cell extracts (10–15 mg total protein/ml) were clarified by centrifugation at 16,000×g for 30 min, then the NaCl concentration was increased by 50 mM. Cytosolic fractions were used immediately or stored frozen at −80° C.
Caspase activity was assayed by release of either 7-amino-4-trifluoromethyl-coumarin (AFC) or p-nitroanilide (pNA) from benzylyoxycarbonyl-DEVD (SEQ ID NO: 2) or benzylyoxycarbonyl-YVAD (SEQ ID NO: 3) synthetic peptides using a Molecular Devices Spectromax 340 for AFC labeled peptides or Perkin/Elmer LS50B for pNA labeled peptides (see Example II; see, also, Zhou et al., supra, 1997). Cytosolic extracts from 293 cells or Jurkat T cells were used directly (negative control) or were treated with 1 μM cytochrome c and 1 mM dATP or with cytochrome c, dATP and 0.2 μM GST-XIAP. Additional control reactions were performed by substituting 2 μM GST-Bcl-2, GST-Bax, GST-NM23 or GST-CD40 cytosolic domain, or 5 μM His6-S5a protein for GST-XIAP. DEVD-pNA hydrolysis was measured at various times and multiple experiments were performed using several different GST-XIAP preparations.

Another assay addresses T1, caspase-7 (Homo sapiens, UniProt P55210).
T1 construct: Purified active caspase concentrations ranged from 0.1 nM to 10 nM; His6; made in house; host or cells: E. coli BL21(DE3)pLysS
T1 sequence (P55210 24-198 limits assumed): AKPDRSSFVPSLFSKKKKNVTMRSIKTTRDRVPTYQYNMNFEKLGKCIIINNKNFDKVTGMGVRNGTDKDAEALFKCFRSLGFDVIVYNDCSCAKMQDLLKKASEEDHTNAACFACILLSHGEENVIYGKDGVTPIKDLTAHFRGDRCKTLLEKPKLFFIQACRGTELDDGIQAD
T1 sequence (P55210 207-303 limits assumed): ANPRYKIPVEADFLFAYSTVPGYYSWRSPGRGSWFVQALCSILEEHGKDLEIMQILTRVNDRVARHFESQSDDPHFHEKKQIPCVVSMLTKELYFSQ
The experiment in a line: Inhibition of purified recombinant caspase-7, DEVD substrate hydrolysis and progress curves. In kind it is biochemical.

For a further assay, the system named is pro-caspase-9. The experiment in a line: Cytochrome c-induced processing of pro-caspase-9 in 293 cytosolic extracts. To be noted: for cytochrome c-induced pro-caspase-9 processing (in words): 0.2 μM GST-IAP, 30 min at 30° C. In kind it is biochemical, human. The protocol: Cytochrome c induced processing of pro-caspase-9 was subsequently monitored by SDS-PAGE and autoradiography.
Pro-caspase-9 inhibition by Ac-DEVD-fmk, zVAD-fmk and XIAP was compared as follows. In vitro translated ^35S-labeled pro-caspase-9 was added to cytosolic extracts from 293 cells containing 10 μM cytochrome c and 1 mM dATP. Samples were incubated at 30° C. for 30 minutes in the presence of the indicated concentrations of inhibitors. Proteins were separated on SDS-PAGE gels, dried directly, and exposed to film.

In a further assay the target is T2, caspase-9 (Homo sapiens, UniProt P55211).
T2 construct: Full length N-terminally tagged caspase-9 was subcloned from pcDNA3; His6 (N); made in house; host or cells: E. coli BL21 (DE3), vector pET-23d
T2 sequence (P55211 1-315 limits assumed): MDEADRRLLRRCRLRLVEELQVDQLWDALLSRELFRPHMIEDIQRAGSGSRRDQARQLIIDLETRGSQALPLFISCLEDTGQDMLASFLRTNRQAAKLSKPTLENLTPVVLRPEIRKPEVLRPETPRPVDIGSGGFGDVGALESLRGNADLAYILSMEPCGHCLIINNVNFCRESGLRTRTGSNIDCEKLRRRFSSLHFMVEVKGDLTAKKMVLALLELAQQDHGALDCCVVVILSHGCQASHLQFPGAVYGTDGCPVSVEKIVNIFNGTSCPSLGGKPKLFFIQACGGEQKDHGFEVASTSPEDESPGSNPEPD
T2 sequence (P55211 331-416 limits assumed): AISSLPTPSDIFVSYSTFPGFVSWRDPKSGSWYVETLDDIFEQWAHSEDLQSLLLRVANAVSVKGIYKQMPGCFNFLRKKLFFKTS
The experiment in a line: Inhibition of purified recombinant active caspase-9. To be noted: for pro-caspase-3 activation by caspase-9, coupled Ac-DEVD-AFC hydrolysis (in words): coupled reaction. In kind it is biochemical. The protocol:
Caspase-9 activity was measured by monitoring the processing and activity of the purified recombinant zymogen form of caspase-3 that was produced in bacteria. Active caspase-9 (0.1 μM) was incubated with pro-caspase-3 (0.5 μM) in the presence or absence of GST-XIAP (0.1 μM). Experiments were performed with two independent preparations of active caspase-9. Samples were subsequently analyzed for pro-caspase-3 processing by immunoblot analysis. Asterisks denote the processed forms of the large subunit of caspase-3. Samples were simultaneously assayed for release of the AFC fluorophore from DEVD-AFC. Activity was arbitrarily designated as 100% for one of the two preparations of active caspase-9.
For the results shown in FIG. 7C, pro-caspase-9 was in vitro translated in reticulocyte lysates in the presence of ^35S-L-methionine and then purified by metal chromatography. […] Proteins were analyzed by SDS-PAGE and autoradiography. An asterisk denotes the processed form of caspase-9.

Method for caspase-7: Purified recombinant caspase-1, caspase-3, caspase-6, caspase-7 or caspase-8 were incubated with DEVD-pNA, either alone or with a 10-fold to 50-fold molar excess of GST-XIAP (20 μM) and substrate hydrolysis was measured. Purified active caspase concentrations ranged from 0.1 nM to 10 nM. XIAP concentration ranged from 0.1 nM to 500 nM. Assays were performed in caspase buffer (50 mM Tris, pH 7.4, 100 mM NaCl, 10% sucrose, 5–10 mM DTT, 1 mM EDTA and 0.1% CHAPS).
Equilibria were determined from progress curves when substrate hydrolysis reached a steady-state; slopes were calculated by curve fit analysis using the cricket graph program. Experiments were performed using purified recombinant caspase-3, caspase-6, or caspase-7. DEVD-AFC hydrolysis was measured using 0.1 nM caspase and a range of concentrations (0.2 to 12 μM) of recombinant XIAP (rXIAP). […] Average ratio velocities (vi/vo, where “vi” indicates presence of GST-XIAP and “vo” indicates absence of GST-XIAP) were determined.
Caspase activity was determined essentially as described in Example II, using the benzylyoxycarbonyl-DEVD-AFC (SEQ ID NO: 2) substrate and was assayed at 37° C. using the Perkin-Elmer LS50B fluorometric plate reader in the kinetic mode with excitation and emission wavelengths of 400 nm and 505 nm, respectively. […] Reactions were performed in caspase buffer (50 mM Hepes, 100 mM NaCl, 1 mM EDTA, 0.1% CHAPS, 10% sucrose, 5 mM DTT). The inhibition constant, Ki, was calculated as described (Zhou et al., supra, 1997).

Take “XIAP: X chromosome linked inhibitor of apoptosis protein (Genbank U32974), used mostly as recombinant GST fusion or expressed from plasmid”: in assay [1] (293 extracts + cytochrome c/dATP, GST-XIAP 0.2 μM, GST controls 2 μM, His6-S5a 5 μM, untreated ≈0.01), the “DEVD-pNA hydrolysis, ΔA405 after 15 min” value was “approximately the same as untreated control extracts”. For the same substance, in assay [1] (extracts of cells transfected with pcDNA3-XIAP versus control plasmid), the “reduction of cytochrome c/dATP-induced DEVD-pNA hydrolyzing activity” value is on record as “greater than 50%”. The “inhibition of processing of DEVD-pNA by caspase-7” value in the assay with caspase-7 (10-fold molar excess) is “greater than 95%”. In addition, the “average ratio velocity (vi/vo), caspase-7” value with caspase-7 (DEVD-AFC hydrolysis with/without GST-XIAP) was “less than 0.2”. The Ki with caspase-7 (progress curve analysis, DEVD-AFC 0.1 mM, 0.1 nM caspase, read-out: inhibition constant (Ki) for caspase-7) was approximately 0.2 nM. Besides, in the assay with pro-caspase-9, the “potency relative to baculovirus p35 protein at inhibiting cytochrome c-induced processing of pro-caspase-9” value is “about 5 fold” and the “cytochrome c-induced pro-caspase-9 processing (in words)” value is reported as “nearly completely abolished”. For the same substance, the “concentration to completely abolish cytochrome c-mediated processing of pro-caspase-9” value with pro-caspase-9 (10 μM cytochrome c, 1 mM dATP, 30° C., 30 min) is “less than 0.2 μM”. For the same substance, the “processing of 35S-pro-caspase-9 by active caspase-9 (in words)” value in the assay with caspase-9 (0.1 μM caspase-9, 0.1 μM GST-XIAP, 30° C., 1 hr) was “potently inhibited”. In addition, the “pro-caspase-3 activation by caspase-9, coupled Ac-DEVD-AFC hydrolysis (in words)” value in the assay with caspase-9 was “efficiently inhibited”. Moreover, the “cleavage of pro-caspase-3 by caspase-9, immunoblot (in words)” value with caspase-9 (equimolar to caspase-9 (0.1 μM), pro-caspase-3 0.5 μM) is recorded as “strongly inhibited”.

Regarding “c-IAP-2: cellular IAP protein c-IAP-2/HIAP-1/hMIHC, recombinant GST fusion or myc-tagged”, the “DEVD hydrolysis in activated 293 cell cytosolic extracts (in words)” value in assay [1] (3 μM, extracts activated 30 min with cytochrome c and dATP) is reported as “inhibited DEVD hydrolysis”. Besides, the “cytochrome c-induced pro-caspase-9 processing (in words)” value in the assay with pro-caspase-9 is reported as “inhibited pro-caspase-9 processing, albeit to a lesser extent”. For the same substance, in the assay with caspase-9, the “pro-caspase-3 activation by caspase-9, coupled Ac-DEVD-AFC hydrolysis (in words)” value is recorded as “efficiently inhibited”.

The values above are taken from patent publication US7192728B2, “Screening assays for agents that alter inhibitor of apoptosis (IAP) protein regulation of caspase activity” (The Burnham Institute, priority 1997, dated 2007).
